According to BindingDB's records for doi:10.1016/s1074-5521(98)90168-5 (University of California San Francisco, 1998):

Legend:
[1] = target: T1, Thyroid hormone receptor alpha (Homo sapiens, UniProt P10827); assay: TR Receptor Ligand Binding Assay
T1 sequence (P10827 whole entry): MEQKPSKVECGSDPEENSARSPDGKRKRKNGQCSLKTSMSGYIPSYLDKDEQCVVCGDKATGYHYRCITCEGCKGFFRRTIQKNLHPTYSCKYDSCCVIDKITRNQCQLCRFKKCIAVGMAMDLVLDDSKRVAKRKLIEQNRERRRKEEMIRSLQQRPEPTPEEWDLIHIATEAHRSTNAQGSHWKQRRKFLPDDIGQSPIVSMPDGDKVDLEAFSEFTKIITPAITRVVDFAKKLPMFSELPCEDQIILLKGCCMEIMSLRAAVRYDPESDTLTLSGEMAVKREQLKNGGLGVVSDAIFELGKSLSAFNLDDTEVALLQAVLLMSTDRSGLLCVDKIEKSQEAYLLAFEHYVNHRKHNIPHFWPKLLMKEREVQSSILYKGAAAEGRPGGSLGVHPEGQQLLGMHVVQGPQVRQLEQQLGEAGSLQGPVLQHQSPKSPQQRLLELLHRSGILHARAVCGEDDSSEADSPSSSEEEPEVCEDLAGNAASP
Text: (§1) Human thyroid hormone receptor alpha and beta (hTR alpha1) and (hTR beta1) were produced using TNT coupled reticulocyte lysate system from Promega.

[2] = target: T2, Thyroid hormone receptor beta (Homo sapiens, UniProt P10828); assay: TR Receptor Ligand Binding Assay
T2 sequence (P10828 whole entry): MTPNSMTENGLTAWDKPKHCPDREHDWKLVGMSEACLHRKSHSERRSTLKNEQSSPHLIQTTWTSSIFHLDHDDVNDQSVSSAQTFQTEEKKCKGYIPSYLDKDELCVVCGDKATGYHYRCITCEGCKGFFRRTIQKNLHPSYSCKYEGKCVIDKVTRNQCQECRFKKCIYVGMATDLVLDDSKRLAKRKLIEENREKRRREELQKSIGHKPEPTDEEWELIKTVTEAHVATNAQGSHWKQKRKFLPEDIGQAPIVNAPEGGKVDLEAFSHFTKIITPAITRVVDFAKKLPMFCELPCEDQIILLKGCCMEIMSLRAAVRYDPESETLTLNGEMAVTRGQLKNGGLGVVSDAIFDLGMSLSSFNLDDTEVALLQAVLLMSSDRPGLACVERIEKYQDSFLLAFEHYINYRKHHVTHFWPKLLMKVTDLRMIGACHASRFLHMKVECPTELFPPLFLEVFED
Text: as §1

- Kd [1]: 9.7 nM
- Kd [2]: 9.8 nM
SMILES: Cc1cc(C[C@H](N)C(=O)O)cc(C)c1Oc1ccc(O)c(C(C)C)c1 [Dimethyl-isopropyl-T3 (DIMIT)]
